From ChEMBL document CHEMBL1126445, “Acetylcholine-releasing agents as cognition enhancers. Structure-activity relationships of pyridinyl pendant groups on selected core structures” (1992)

Organism: Rattus norvegicus
Assay: Compound was evaluated for its ability to enhance the release of acetylcholine in vitro by using [3H]choline in rat brain slice superfusion system
Format: functional

| Compound | Release |
| --- | --- |
| O=C1c2cccc3cccc(c23)C1(Cc1ccccn1)Cc1ccccn1 | 40% |
| O=C1N(c2ccccc2)c2ccccc2C1(Cc1cccnc1)Cc1cccnc1 | 38% |
| O=C1CCc2ccccc2C1(Cc1ccccn1)Cc1ccccn1 | 25% |
| C=C1c2cccc3cccc(c23)C1(Cc1cccnc1)Cc1cccnc1 | 21% |
| c1ccc2c(c1)Oc1ccccc1C2(Cc1ccncc1)Cc1ccncc1 | 91% |
| OC1c2cccc3cccc(c23)C1(Cc1ccccn1)Cc1ccccn1 (stereo unspecified) | 53% |
| O=C1N(c2ccccc2)c2ccccc2C1(Cc1ccccn1)Cc1ccccn1 | 22% |
| c1ccc(CC2(Cc3ccccn3)c3ccccc3Oc3ccccc32)nc1 | 24% |
| c1cncc(CC2(Cc3cccnc3)c3ccccc3Oc3ccccc32)c1 | 59% |
| OC1c2cccc3cccc(c23)C1(Cc1ccncc1)Cc1ccncc1 (stereo unspecified) | 15% |
| O=C1c2cccc3cccc(c23)C1(Cc1cccnc1)Cc1cccnc1 | 7% |
| C=C1c2cccc3cccc(c23)C1(Cc1ccncc1)Cc1ccncc1 | 97% |
| OC1c2cccc3cccc(c23)C1(Cc1cccnc1)Cc1cccnc1 (stereo unspecified) | 29% |
| C=C1c2cccc3cccc(c23)C1(Cc1ccccn1)Cc1ccccn1 | 25% |
| O=C1CCc2ccccc2C1(Cc1ccncc1)Cc1ccncc1 | 36% |
| O=C1CCc2ccccc2C1(Cc1cccnc1)Cc1cccnc1 | 11% |
| O=C1c2cccc3cccc(c23)C1(Cc1ccncc1)Cc1ccncc1 | 70% |
| c1ccc2c(c1)Sc1ccccc1C2(Cc1ccncc1)Cc1ccncc1 | 42% |
| c1cncc(CC2(Cc3cccnc3)c3ccccc3Sc3ccccc32)c1 | 79% |
| c1ccc(CC2(Cc3ccccn3)c3ccccc3Sc3ccccc32)nc1 | 47% |
| O=C1N(c2ccccc2)c2ccccc2C1(Cc1ccncc1)Cc1ccncc1 [LINOPIRDINE] | 100% |
